This is an account of results in patent US20240425502A1, “BICYCLIC HETEROAROMATIC COMPOUNDS AND THEIR USE AS PEST CONTROL AGENTS” (PI INDUSTRIES LTD., priority 2021, published 2024).

In one experiment the test system is Nilaparvata lugens. Description: Nilaparvata lugens seedling dip test (paddy seedlings, third instar nymphs). The format is in vivo. The following applies: 72 h after release, dead and moribund combined, compared to untreated control, read-out: percent mortality.
Another experiment deals with Myzus persicae. As to the kind of experiment: Myzus persicae leaf dip test (capsicum leaves, third instar nymphs). The experiment is classed as in vivo. The note with it: foliar, 72 h after release, dead and moribund combined, compared to untreated control, read-out: percent mortality.

As to `O=c1nc2n(Cc3cnc(Cl)s3)cccc-2c(=O)n1-c1ccc(F)cc1` [Compound 153, 8-((2-chlorothiazol-5-yl)methyl)-3-(4-fluorophenyl)pyrido[2,3-d]pyrimidine-2,4(3H,8H)-dione], in the experiment with Nilaparvata lugens, the mortality at 300 ppm was at least 70%. On the same count and under the same terms, the figure for `COc1cccc(-n2c(=O)nc3n(Cc4cnc(Cl)s4)cccc-3c2=O)c1` [Compound 72, 8-((2-chlorothiazol-5-yl)methyl)-3-(3-methoxyphenyl)pyrido[2,3-d]pyrimidine-2,4(3H,8H)-dione] is at least 70%; for `O=c1nc2n(Cc3ccc(C(F)(F)F)nc3)cccc-2c(=O)n1-c1ccccc1F` [Compound 162, 3-(2-fluorophenyl)-8-((6-(trifluoromethyl)pyridin-3-yl)methyl)pyrido[2,3-d]pyrimidine-2,4(3H,8H)-dione] it is at least 70%.

With `O=c1nc2n(Cc3cnc(Cl)s3)cccc-2c(=O)n1-c1ccc(F)cc1Cl` [Compound 237, 3-(2-chloro-4-fluorophenyl)-8-((2-chlorothiazol-5-yl)methyl)pyrido[2,3-d]pyrimidine-2,4(3H,8H)-dione], in the experiment on Nilaparvata lugens, the mortality at 300 ppm was at least 70%.

`O=c1nc2n(Cc3cnc(Cl)nc3)cccc-2c(=O)n1-c1ccsc1` [Compound 179, 8-((2-chloropyrimidin-5-yl)methyl)-3-(thiophen-3-yl)pyrido[2,3-d]pyrimidine-2,4(3H,8H)-dione]: the mortality at 300 ppm in the experiment on Myzus persicae and in the experiment with Nilaparvata lugens was at least 70% throughout.

In the case of `O=c1nc2n(Cc3cnc(Cl)s3)cccc-2c(=O)n1-c1ccc(F)c(Cl)c1` [Compound 165, 3-(3-chloro-4-fluorophenyl)-8-((2-chlorothiazol-5-yl)methyl)pyrido[2,3-d]pyrimidine-2,4(3H,8H)-dione], in the experiment on Nilaparvata lugens, the mortality at 300 ppm was at least 70%. For the molecule `O=c1nc2n(Cc3cnc(Cl)s3)cccc-2c(=O)n1-c1cccc(C(F)F)c1` [Compound 187, 8-((2-chlorothiazol-5-yl)methyl)-3-(3-(difluoromethyl)phenyl)pyrido[2,3-d]pyrimidine-2,4(3H,8H)-dione], the mortality at 300 ppm in the experiment with Myzus persicae and in the experiment on Nilaparvata lugens was at least 70% throughout. For `O=c1nc2n(Cc3cnc(Cl)nc3)cccc-2c(=O)n1-c1ccc(OC(F)F)cc1` [Compound 160, 8-((2-chloropyrimidin-5-yl)methyl)-3-(4-(difluoromethoxy)phenyl)pyrido[2,3-d]pyrimidine-2,4(3H,8H)-dione], the mortality at 300 ppm in the experiment on Myzus persicae and in the experiment with Nilaparvata lugens was at least 70% each time. Turning to `O=c1nc2n(Cc3cnc(Cl)s3)cccc-2c(=O)n1-c1cccc(Cl)c1F` [Compound 217, 3-(3-chloro-2-fluorophenyl)-8-((2-chlorothiazol-5-yl)methyl)pyrido[2,3-d]pyrimidine-2,4(3H,8H)-dione], the mortality at 300 ppm in the experiment with Myzus persicae and in the experiment with Nilaparvata lugens was at least 70% throughout. Regarding `O=c1nc2n(Cc3cnc(Cl)s3)cccc-2c(=O)n1-c1ccc(OC(F)(F)F)c(Cl)c1` [Compound 212, 3-(3-chloro-4-(trifluoromethoxy)phenyl)-8-((2-chlorothiazol-5-yl)methyl)pyrido[2,3-d]pyrimidine-2,4(3H,8H)-dione], the mortality at 300 ppm in the experiment on Myzus persicae and in the experiment with Nilaparvata lugens was at least 70% throughout. In the case of `O=c1nc2n(Cc3cnc(Cl)nc3)cccc-2c(=O)n1-c1ccc(C2CC2)cc1` [Compound 245, 8-((2-chloropyrimidin-5-yl)methyl)-3-(4-cyclopropylphenyl)pyrido[2,3-d]pyrimidine-2,4(3H,8H)-dione], in the experiment with Nilaparvata lugens, the mortality at 300 ppm was at least 70%. With `O=c1nc2n(Cc3cnc(Cl)nc3)cccc-2c(=O)n1-c1cccc(C(F)F)c1` [Compound 203, 8-((2-chloropyrimidin-5-yl)methyl)-3-(3-(difluoromethyl)phenyl)pyrido[2,3-d]pyrimidine-2,4(3H,8H)-dione], the mortality at 300 ppm in the experiment with Myzus persicae and with Nilaparvata lugens was at least 70% in each case. On to `O=c1nc2n(Cc3ccc(Cl)nc3)cccc-2c(=O)n1-c1ccc(F)c(C(F)(F)F)c1` [Compound 222, 8-((6-chloropyridin-3-yl)methyl)-3-(4-fluoro-3-(trifluoromethyl)phenyl)pyrido[2,3-d]pyrimidine-2,4(3H,8H)-dione], for which the mortality at 300 ppm in the experiment with Myzus persicae is at least 70%. Regarding `Cc1cccc(-n2c(=O)nc3n(Cc4cnc(Cl)nc4)cccc-3c2=O)c1` [Compound 128, 8-((2-chloropyrimidin-5-yl)methyl)-3-(m-tolyl)pyrido[2,3-d]pyrimidine-2,4(3H,8H)-dione], the mortality at 300 ppm in the experiment with Nilaparvata lugens was at least 70%. The same measure, in the same setting: the figure for `O=c1nc2n(Cc3cnc(Cl)s3)cccc-2c(=O)n1-c1cccc(Br)c1` [Compound 249, 3-(3-bromophenyl)-8-((2-chlorothiazol-5-yl)methyl)pyrido[2,3-d]pyrimidine-2,4(3H,8H)-dione] is at least 70%. The same measure, in the same setting: with `O=c1nc2n(Cc3cnc(Cl)s3)cccc-2c(=O)n1-c1c(F)cccc1F` [Compound 215, 8-((2-chlorothiazol-5-yl)methyl)-3-(2,6-difluorophenyl)pyrido[2,3-d]pyrimidine-2,4(3H,8H)-dione] the figure was at least 70%.

For the molecule `COc1ccccc1-n1c(=O)nc2n(Cc3cnc(Cl)s3)cccc-2c1=O` [Compound 73, 8-((2-chlorothiazol-5-yl)methyl)-3-(2-methoxyphenyl)pyrido[2,3-d]pyrimidine-2,4(3H,8H)-dione], the mortality at 300 ppm in the experiment with Myzus persicae and in the experiment on Nilaparvata lugens was at least 70% throughout. Take `O=c1nc2n(Cc3cnc(Cl)s3)cccc-2c(=O)n1-c1ccc(Cl)cc1F` [Compound 193, 3-(4-chloro-2-fluorophenyl)-8-((2-chlorothiazol-5-yl)methyl)pyrido[2,3-d]pyrimidine-2,4(3H,8H)-dione]: the mortality at 300 ppm with Myzus persicae and with Nilaparvata lugens was at least 70% throughout.

In the case of `O=c1nc2n(Cc3ccc(Cl)nc3)cccc-2c(=O)n1-c1cccc(OCC(F)(F)F)c1` [Compound 211, 8-((6-chloropyridin-3-yl)methyl)-3-(3-(2,2,2-trifluoroethoxy)phenyl)pyrido[2,3-d]pyrimidine-2,4(3H,8H)-dione], the mortality at 300 ppm in the experiment with Myzus persicae and in the experiment with Nilaparvata lugens was at least 70% throughout. In the case of `O=c1nc2n(Cc3cnc(Cl)s3)cccc-2c(=O)n1-c1cccc(OC(F)F)c1` [Compound 151, 8-((2-chlorothiazol-5-yl)methyl)-3-(3-(difluoromethoxy)phenyl)pyrido[2,3-d]pyrimidine-2,4(3H,8H)-dione], the mortality at 300 ppm in the experiment with Myzus persicae and in the experiment on Nilaparvata lugens was at least 70% each time. For `O=c1nc2n(Cc3cnc(Cl)s3)cccc-2c(=O)n1-c1cc(F)cc(F)c1` [Compound 141, 8-((2-chlorothiazol-5-yl)methyl)-3-(3,5-difluorophenyl)pyrido[2,3-d]pyrimidine-2,4(3H,8H)-dione], the mortality at 300 ppm in the experiment with Myzus persicae and with Nilaparvata lugens was at least 70% throughout. For the molecule `O=c1nc2n(Cc3ccc(Cl)nc3)cccc-2c(=O)n1-c1ccc(OC(F)(F)F)c(Cl)c1` [Compound 195, 3-(3-chloro-4-(trifluoromethoxy)phenyl)-8-((6-chloropyridin-3-yl)methyl)pyrido[2,3-d]pyrimidine-2,4(3H,8H)-dione], the mortality at 300 ppm with Myzus persicae and in the experiment on Nilaparvata lugens was at least 70% each time. For `O=c1nc2n(Cc3cnc(Cl)nc3)cccc-2c(=O)n1-c1cccc(Cl)c1F` [Compound 226, 3-(3-chloro-2-fluorophenyl)-8-((2-chloropyrimidin-5-yl)methyl)pyrido[2,3-d]pyrimidine-2,4(3H,8H)-dione], the mortality at 300 ppm in the experiment on Myzus persicae and with Nilaparvata lugens was at least 70% in each case.

`O=c1nc2n(Cc3cnc(Cl)s3)cccc-2c(=O)n1-c1ccccc1` [Compound 62, 8-((2-chlorothiazol-5-yl)methyl)-3-phenylpyrido[2,3-d]pyrimidine-2,4(3H,8H)-dione]: the mortality at 300 ppm with Nilaparvata lugens is at least 70%. As for `O=c1nc2n(Cc3cnc(Cl)s3)cccc-2c(=O)n1-c1cccc(F)c1F` [Compound 214, 8-((2-chlorothiazol-5-yl)methyl)-3-(2,3-difluorophenyl)pyrido[2,3-d]pyrimidine-2,4(3H,8H)-dione], the mortality at 300 ppm with Myzus persicae and with Nilaparvata lugens was at least 70% throughout.

Take `O=c1nc2n(Cc3ccc(C(F)(F)F)nc3)cccc-2c(=O)n1-c1cccc(C(F)(F)F)c1` [Compound 172, 3-(3-(trifluoromethyl)phenyl)-8-((6-(trifluoromethyl)pyridin-3-yl)methyl)pyrido[2,3-d]pyrimidine-2,4(3H,8H)-dione]: the mortality at 300 ppm in the experiment on Myzus persicae is at least 70%. For the molecule `O=c1nc2n(Cc3cnc(Cl)nc3)cccc-2c(=O)n1-c1cccc(F)c1F` [Compound 205, 8-((2-chloropyrimidin-5-yl)methyl)-3-(2,3-difluorophenyl)pyrido[2,3-d]pyrimidine-2,4(3H,8H)-dione], the mortality at 300 ppm in the experiment with Myzus persicae and in the experiment with Nilaparvata lugens was at least 70% each time. For the molecule `O=c1nc2n(Cc3ccc(Cl)nc3)cccc-2c(=O)n1-c1ccc(Cl)c(C(F)(F)F)c1` [Compound 219, 3-(4-chloro-3-(trifluoromethyl)phenyl)-8-((6-chloropyridin-3-yl)methyl)pyrido[2,3-d]pyrimidine-2,4(3H,8H)-dione], in the experiment with Nilaparvata lugens, the mortality at 300 ppm was at least 70%. On the same count and under the same terms, with `O=c1nc2n(Cc3cnc(Cl)s3)cccc-2c(=O)n1-c1cccc(F)c1` [Compound 143, 8-((2-chlorothiazol-5-yl)methyl)-3-(3-fluorophenyl)pyrido[2,3-d]pyrimidine-2,4(3H,8H)-dione] the figure was at least 70%.
